Assay results as given in ChEMBL document CHEMBL4052645, “Discovery of potent and efficacious pyrrolopyridazines as dual JAK1/3 inhibitors” (Bioorg Med Chem Lett, 2017).

Assays:
[1] = molecular target: Mitogen-activated protein kinase 4 (Homo sapiens) (UniProt P31152); experiment: Inhibition of wild-type human partial length ERK4 (M1 to L365 residues) expressed in bacterial expression system assessed as residual activity at 50 nM by Kinomescan method relative to control
[2] = molecular target: Aurora kinase C (Homo sapiens) (UniProt Q9UQB9); experiment: Inhibition of wild-type human full length AURC (M1 to S275 residues) expressed in bacterial expression system assessed as residual activity at 50 nM by Kinomescan method relative to control
[3] = molecular target: Mitogen-activated protein kinase 12 (Homo sapiens) (UniProt P53778); experiment: Inhibition of wild-type human full length p38-gamma (M1 to L367 residues) expressed in mammalian expression system assessed as residual activity at 50 nM by Kinomescan method relative to control
Mitogen-activated protein kinase 12 (Homo sapiens), sequence (P53778 whole entry, the tested form may be a part): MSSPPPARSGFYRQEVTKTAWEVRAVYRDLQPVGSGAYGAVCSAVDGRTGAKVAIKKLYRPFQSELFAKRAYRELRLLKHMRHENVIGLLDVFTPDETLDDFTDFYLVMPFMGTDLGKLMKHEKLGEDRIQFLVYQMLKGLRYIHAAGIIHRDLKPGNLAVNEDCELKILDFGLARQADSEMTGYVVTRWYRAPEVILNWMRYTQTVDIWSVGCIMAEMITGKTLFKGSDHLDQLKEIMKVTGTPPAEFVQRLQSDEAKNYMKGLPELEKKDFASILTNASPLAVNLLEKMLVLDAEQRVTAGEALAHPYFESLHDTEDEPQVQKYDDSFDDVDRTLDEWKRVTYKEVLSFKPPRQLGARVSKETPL

[4] = molecular target: Cyclin-dependent kinase 17 (Homo sapiens) (UniProt Q00537); experiment: Inhibition of recombinant human full length PCTAIRE2 (M1 to F523 residues) assessed as residual activity at 50 nM by Kinomescan method relative to control
[5] = molecular target: G protein-coupled receptor kinase 4 (Homo sapiens) (UniProt P32298); experiment: Inhibition of wild-type human full length GPRK4 (M1 to C578 residues) expressed in bacterial expression system assessed as residual activity at 50 nM by Kinomescan method relative to control
G protein-coupled receptor kinase 4 (Homo sapiens), sequence (P32298 whole entry, looked up, the tested form may be a part): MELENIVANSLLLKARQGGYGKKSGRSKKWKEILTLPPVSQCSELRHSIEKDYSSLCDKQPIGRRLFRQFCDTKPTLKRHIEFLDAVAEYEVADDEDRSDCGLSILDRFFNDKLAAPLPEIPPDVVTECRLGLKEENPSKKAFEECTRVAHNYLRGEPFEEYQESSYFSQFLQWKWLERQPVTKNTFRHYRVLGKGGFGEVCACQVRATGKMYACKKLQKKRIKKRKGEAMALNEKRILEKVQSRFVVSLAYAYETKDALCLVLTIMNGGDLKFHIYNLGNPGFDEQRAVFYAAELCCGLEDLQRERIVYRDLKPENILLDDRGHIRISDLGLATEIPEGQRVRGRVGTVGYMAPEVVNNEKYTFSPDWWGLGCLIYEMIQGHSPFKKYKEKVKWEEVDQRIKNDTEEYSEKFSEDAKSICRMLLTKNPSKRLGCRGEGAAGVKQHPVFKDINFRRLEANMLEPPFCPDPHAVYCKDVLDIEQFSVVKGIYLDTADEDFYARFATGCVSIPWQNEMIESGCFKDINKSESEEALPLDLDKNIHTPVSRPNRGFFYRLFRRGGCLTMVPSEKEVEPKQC

[6] = molecular target: Dual specificity mitogen-activated protein kinase kinase 1 (Homo sapiens) (UniProt Q02750); experiment: Inhibition of wild-type human full length MAP2K1 (M1 to V393 residues) expressed in mammalian expression system assessed as residual activity at 50 nM by Kinomescan method relative to control
[7] = molecular target: Myosin-IIIb (Homo sapiens) (UniProt Q8WXR4); experiment: Inhibition of wild-type human partial length MYO3B (M1 to D357 residues) expressed in bacterial expression system assessed as residual activity at 50 nM by Kinomescan method relative to control
[8] = molecular target: Calcium/calmodulin-dependent protein kinase kinase 2 (Homo sapiens) (UniProt Q96RR4); experiment: Inhibition of wild-type human partial length CAMKK2 (D65 to V471 residues) expressed in bacterial expression system assessed as residual activity at 50 nM by Kinomescan method relative to control
[9] = molecular target: Serine/threonine-protein kinase N2 (Homo sapiens) (UniProt Q16513); experiment: Inhibition of human PKN2 (E634 to C948 residues) expressed in bacterial expression system assessed as residual activity at 50 nM by KINOMEscan assay relative to control
Serine/threonine-protein kinase N2 (Homo sapiens), sequence (Q16513 whole entry, looked up, the tested form may be a part): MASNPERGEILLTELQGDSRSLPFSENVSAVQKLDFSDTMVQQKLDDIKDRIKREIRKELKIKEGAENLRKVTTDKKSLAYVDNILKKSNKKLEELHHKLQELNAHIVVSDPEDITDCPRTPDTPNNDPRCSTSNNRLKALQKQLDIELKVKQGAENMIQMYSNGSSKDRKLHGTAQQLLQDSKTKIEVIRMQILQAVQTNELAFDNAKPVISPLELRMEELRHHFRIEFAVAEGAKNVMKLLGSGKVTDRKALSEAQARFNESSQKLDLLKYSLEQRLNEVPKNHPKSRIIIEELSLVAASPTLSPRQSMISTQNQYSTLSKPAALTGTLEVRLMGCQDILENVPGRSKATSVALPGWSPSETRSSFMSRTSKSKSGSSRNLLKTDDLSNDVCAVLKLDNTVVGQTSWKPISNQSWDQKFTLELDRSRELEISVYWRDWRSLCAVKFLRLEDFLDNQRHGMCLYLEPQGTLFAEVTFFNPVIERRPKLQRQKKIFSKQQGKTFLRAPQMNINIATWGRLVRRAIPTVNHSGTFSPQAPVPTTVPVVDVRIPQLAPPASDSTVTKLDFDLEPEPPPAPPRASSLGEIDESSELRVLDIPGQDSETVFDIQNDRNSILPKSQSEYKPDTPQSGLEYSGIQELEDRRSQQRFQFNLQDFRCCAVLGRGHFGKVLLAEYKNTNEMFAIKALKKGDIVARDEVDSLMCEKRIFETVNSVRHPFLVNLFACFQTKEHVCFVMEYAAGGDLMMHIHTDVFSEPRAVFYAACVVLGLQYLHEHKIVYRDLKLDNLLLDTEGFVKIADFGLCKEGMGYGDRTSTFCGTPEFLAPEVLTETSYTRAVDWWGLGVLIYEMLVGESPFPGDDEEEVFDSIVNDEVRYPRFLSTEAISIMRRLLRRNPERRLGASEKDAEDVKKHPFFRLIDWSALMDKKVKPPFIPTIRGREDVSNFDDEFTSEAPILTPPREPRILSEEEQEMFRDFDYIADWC

[10] = molecular target: Myosin light chain kinase (Homo sapiens) (UniProt Q32MK0); experiment: Inhibition of wild-type human partial length CAMLCK (D488 to K800 residues) expressed in bacterial expression system assessed as residual activity at 50 nM by Kinomescan method relative to control
[11] = molecular target: Phosphatidylinositol 5-phosphate 4-kinase type-2 gamma (Homo sapiens) (UniProt Q8TBX8); experiment: Inhibition of wild-type human partial length PIP5K2C (M1 to A421 residues) expressed in mammalian expression system assessed as residual activity at 50 nM by Kinomescan method relative to control
[12] = molecular target: Serine/threonine-protein kinase Nek6 (Homo sapiens) (UniProt Q9HC98); experiment: Inhibition of wild-type human full length NEK6 (M8 to T313 residues) expressed in bacterial expression system assessed as residual activity at 50 nM by Kinomescan method relative to control
[13] = molecular target: Glycogen synthase kinase-3 beta (Homo sapiens) (UniProt P49841); experiment: Inhibition of wild-type human full length GSK3B (M1 to T433 residues) expressed in mammalian expression system assessed as residual activity at 50 nM by Kinomescan method relative to control
[14] = molecular target: Tyrosine-protein kinase ABL1 (Homo sapiens) (UniProt P00519); experiment: Inhibition of wild-type human phosphorylated ABL1 (S229 to K512 residues) expressed in mammalian expression system assessed as residual activity at 50 nM by Kinomescan method relative to control
[15] = molecular target: Mitogen-activated protein kinase kinase kinase 3 (Homo sapiens) (UniProt Q99759); experiment: Inhibition of wild-type human partial length MAP3K3 (E320 to Y626 residues) expressed in mammalian expression system assessed as residual activity at 50 nM by Kinomescan method relative to control
[16] = molecular target: Cytoplasmic tyrosine-protein kinase BMX (Homo sapiens) (UniProt P51813); experiment: Inhibition of wild-type human full length BMX (M1 to H675 residues) expressed in bacterial expression system assessed as residual activity at 50 nM by Kinomescan method relative to control
[17] = molecular target: Serine/threonine-protein kinase Nek4 (Homo sapiens) (UniProt P51957); experiment: Inhibition of wild-type human full length NEK4 (M1 to F841 residues) expressed in mammalian expression system assessed as residual activity at 50 nM by Kinomescan method relative to control
Serine/threonine-protein kinase Nek4 (Homo sapiens), sequence (P51957 whole entry, looked up, the tested form may be a part): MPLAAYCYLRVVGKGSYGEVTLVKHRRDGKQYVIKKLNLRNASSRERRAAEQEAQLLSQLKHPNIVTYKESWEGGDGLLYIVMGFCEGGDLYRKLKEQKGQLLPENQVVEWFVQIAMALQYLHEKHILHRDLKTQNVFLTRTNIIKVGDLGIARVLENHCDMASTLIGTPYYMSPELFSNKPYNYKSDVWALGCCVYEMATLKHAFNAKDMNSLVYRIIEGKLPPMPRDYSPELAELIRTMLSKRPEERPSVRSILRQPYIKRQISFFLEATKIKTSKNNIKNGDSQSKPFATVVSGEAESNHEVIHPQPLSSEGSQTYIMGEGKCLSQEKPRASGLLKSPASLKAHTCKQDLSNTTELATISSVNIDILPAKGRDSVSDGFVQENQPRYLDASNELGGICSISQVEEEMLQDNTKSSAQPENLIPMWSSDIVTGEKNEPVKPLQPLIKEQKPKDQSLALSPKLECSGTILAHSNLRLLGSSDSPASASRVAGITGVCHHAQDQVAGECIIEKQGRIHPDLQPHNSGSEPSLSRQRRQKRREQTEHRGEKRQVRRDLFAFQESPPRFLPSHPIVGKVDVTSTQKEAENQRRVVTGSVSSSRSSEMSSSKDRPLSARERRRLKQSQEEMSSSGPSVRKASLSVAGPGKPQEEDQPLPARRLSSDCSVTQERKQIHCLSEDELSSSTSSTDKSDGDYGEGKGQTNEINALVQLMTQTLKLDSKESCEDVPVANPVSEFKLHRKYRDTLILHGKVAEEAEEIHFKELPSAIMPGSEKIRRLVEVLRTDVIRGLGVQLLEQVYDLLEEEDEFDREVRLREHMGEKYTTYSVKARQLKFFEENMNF

[18] = molecular target: Dual specificity mitogen-activated protein kinase kinase 7 (Homo sapiens) (UniProt O14733); experiment: Inhibition of wild-type human full length MAP2K7 (M1 to R419 residues) expressed in mammalian expression system assessed as residual activity at 50 nM by Kinomescan method relative to control
Dual specificity mitogen-activated protein kinase kinase 7 (Homo sapiens), sequence (O14733 whole entry, the tested form may be a part): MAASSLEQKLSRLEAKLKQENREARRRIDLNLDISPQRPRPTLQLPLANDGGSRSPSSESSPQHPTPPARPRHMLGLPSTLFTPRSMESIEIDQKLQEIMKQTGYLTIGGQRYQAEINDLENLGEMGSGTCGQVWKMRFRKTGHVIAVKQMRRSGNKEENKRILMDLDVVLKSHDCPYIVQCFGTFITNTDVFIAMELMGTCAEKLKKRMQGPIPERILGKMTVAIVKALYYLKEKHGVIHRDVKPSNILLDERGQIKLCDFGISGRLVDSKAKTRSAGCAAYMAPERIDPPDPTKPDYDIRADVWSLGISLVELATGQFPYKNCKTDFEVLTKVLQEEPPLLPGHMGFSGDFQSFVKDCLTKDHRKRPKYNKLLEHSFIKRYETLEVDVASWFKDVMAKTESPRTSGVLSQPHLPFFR

[19] = molecular target: STE20-like serine/threonine-protein kinase (Homo sapiens) (UniProt Q9H2G2); experiment: Inhibition of wild-type human partial length SLK (S14 to A307 residues) expressed in bacterial expression system assessed as residual activity at 50 nM by Kinomescan method relative to control
[20] = molecular target: Cyclin-dependent kinase 4/cyclin D1 (Homo sapiens) (UniProt P11802+P24385); experiment: Inhibition of wild-type human full length CDK4/cyclinD1 (M1 to E303 residues) expressed in mammalian expression system assessed as residual activity at 50 nM by Kinomescan method relative to control
[21] = molecular target: Ephrin type-A receptor 3 (Homo sapiens) (UniProt P29320); experiment: Inhibition of wild-type human partial length EPHA3 (D604 to K889 residues) expressed in bacterial expression system assessed as residual activity at 50 nM by Kinomescan method relative to control
[22] = molecular target: Serine/threonine-protein kinase MRCK gamma (Homo sapiens) (UniProt Q6DT37); experiment: Inhibition of wild-type human partial length DMPK2 (S46 to S408 residues) expressed in bacterial expression system assessed as residual activity at 50 nM by Kinomescan method relative to control
[23] = molecular target: Cyclin-dependent kinase 8 (Homo sapiens) (UniProt P49336); experiment: Inhibition of wild-type human partial length CDK8 (M1 to T360 residues) expressed in bacterial expression system assessed as residual activity at 50 nM by Kinomescan method relative to control
Cyclin-dependent kinase 8 (Homo sapiens), sequence (P49336 whole entry, the tested form may be a part, canonical isoform): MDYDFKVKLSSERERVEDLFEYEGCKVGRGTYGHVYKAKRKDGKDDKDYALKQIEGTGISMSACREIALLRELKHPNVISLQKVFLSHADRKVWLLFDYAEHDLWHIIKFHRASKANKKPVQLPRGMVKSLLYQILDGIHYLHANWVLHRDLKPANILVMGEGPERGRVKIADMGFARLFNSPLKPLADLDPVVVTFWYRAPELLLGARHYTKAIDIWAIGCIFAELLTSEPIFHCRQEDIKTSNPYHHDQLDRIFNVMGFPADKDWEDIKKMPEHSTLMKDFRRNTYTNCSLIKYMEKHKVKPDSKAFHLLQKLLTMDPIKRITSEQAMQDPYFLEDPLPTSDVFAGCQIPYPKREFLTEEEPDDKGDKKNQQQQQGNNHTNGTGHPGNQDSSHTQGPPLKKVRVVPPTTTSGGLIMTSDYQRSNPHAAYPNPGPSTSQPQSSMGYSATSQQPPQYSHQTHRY

[24] = molecular target: Phosphatidylinositol 4,5-bisphosphate 3-kinase catalytic subunit gamma isoform (Homo sapiens) (UniProt P48736); experiment: Inhibition of wild-type human partial length PI3KCG (S144 to A1102 residues) expressed in mammalian expression system assessed as residual activity at 50 nM by Kinomescan method relative to control
Phosphatidylinositol 4,5-bisphosphate 3-kinase catalytic subunit gamma isoform (Homo sapiens), sequence (P48736 whole entry, looked up, the tested form may be a part, canonical isoform): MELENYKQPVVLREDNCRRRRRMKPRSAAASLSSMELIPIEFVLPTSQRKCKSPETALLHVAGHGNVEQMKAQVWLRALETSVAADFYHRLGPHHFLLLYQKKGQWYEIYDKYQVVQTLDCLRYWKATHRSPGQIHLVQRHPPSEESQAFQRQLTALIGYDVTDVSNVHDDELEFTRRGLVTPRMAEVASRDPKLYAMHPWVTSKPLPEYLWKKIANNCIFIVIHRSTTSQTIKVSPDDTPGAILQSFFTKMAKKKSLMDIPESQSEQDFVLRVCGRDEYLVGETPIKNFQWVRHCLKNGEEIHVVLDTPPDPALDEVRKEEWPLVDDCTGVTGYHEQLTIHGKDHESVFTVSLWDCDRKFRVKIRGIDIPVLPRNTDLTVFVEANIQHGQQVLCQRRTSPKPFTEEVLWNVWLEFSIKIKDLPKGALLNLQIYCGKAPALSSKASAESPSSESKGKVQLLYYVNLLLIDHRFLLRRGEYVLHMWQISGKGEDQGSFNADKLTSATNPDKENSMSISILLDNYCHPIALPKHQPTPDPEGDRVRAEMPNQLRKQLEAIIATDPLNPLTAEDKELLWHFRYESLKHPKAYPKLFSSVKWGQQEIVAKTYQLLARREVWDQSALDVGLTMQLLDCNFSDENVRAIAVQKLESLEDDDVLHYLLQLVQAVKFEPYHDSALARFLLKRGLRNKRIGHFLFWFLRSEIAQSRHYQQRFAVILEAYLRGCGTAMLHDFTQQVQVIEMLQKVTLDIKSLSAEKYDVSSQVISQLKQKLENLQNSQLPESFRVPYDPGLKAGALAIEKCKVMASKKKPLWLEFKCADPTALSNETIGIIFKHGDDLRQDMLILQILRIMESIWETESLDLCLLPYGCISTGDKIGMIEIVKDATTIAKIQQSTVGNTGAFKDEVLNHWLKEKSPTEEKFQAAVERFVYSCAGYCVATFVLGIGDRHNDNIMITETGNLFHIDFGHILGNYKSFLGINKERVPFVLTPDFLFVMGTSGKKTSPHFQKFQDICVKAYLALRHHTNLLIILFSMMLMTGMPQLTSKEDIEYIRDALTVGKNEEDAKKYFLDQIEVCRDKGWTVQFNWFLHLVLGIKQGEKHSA

[25] = molecular target: Serine/threonine-protein kinase MRCK alpha (Homo sapiens) (UniProt Q5VT25); experiment: Inhibition of wild-type human partial length MRCKA (L57 to V418 residues) expressed in bacterial expression system assessed as residual activity at 50 nM by Kinomescan method relative to control

Structure (SMILES)	Activity [1] [%]	Activity [2] [%]	Activity [3] [%]	Activity [4] [%]	Activity [5] [%]	Activity [6] [%]	Activity [7] [%]	Activity [8] [%]	Activity [9] [%]	Activity [10] [%]	Activity [11] [%]	Activity [12] [%]	Activity [13] [%]	Activity [14] [%]	Activity [15] [%]	Activity [16] [%]	Activity [17] [%]	Activity [18] [%]	Activity [19] [%]	Activity [20] [%]	further results
CC1(C)[C@H](Nc2c(C(N)=O)cnn3cc(-c4ccccc4)cc23)CC[C@]1(C)N	100	42	100	95	64	80	100	83	3	100	100	88	100	100	61	100	52	100	18	100	Activity [21]: 65%; Activity [22]: 37%; Activity [23]: 100%; Activity [24]: 100%; Activity [25]: 74%
COc1ccc(-c2cc3c(N[C@@H]4CC[C@](C)(N)C4(C)C)c(C(N)=O)cnn3c2)cn1	100	82	100	100	100	94	100	64	27	100	100	97	86	74	71	64	100	55	94	97	Activity [21]: 88%; Activity [22]: 97%; Activity [23]: 86%; Activity [24]: 100%; Activity [25]: 97%
